Test results from publication PMC6114901, “An automated screening method for detecting compounds with goitrogenic activity using transgenic zebrafish embryos” (PLoS ONE, 2018).

Tested on: zebrafish embryos
Assay: in vivo
Conditions: for LC10: S2 Fig, unit not given, in µM; for Slope: mortality concentration-response curve
Method: Fish embryo acute toxicity tests were performed similar as described previously, using 10 or 25 embryos per concentration and replicate exposed in crystallization dishes from 48 to 120 hpf. No exchange of exposure media was performed. Lethality was identified by coagulation, missing heartbeat, a non–detached tail and/or missing of somites. Raw data for mortality and phenotypic assessment are provided as S1 Table. Concentration-response curves for mortality are shown in S2 Fig.

[1] = 72 hpf, 77.18 µmol/L, replicate 2, 11 embryos
[2] = 72 hpf, 115.76 µmol/L, replicate 2, 9 embryos
[3] = 72 hpf, 173.64 µmol/L, replicate 2, 8 embryos
[4] = 72 hpf, 260.47 µmol/L, replicate 2, 10 embryos
[5] = 72 hpf, 390.70 µmol/L, replicate 2, 10 embryos
[6] = 120 hpf, 25 µmol/L, replicate 1, 25 embryos
[7] = 120 hpf, 50 µmol/L, replicate 1, 25 embryos
[8] = 120 hpf, 77.18 µmol/L, replicate 2, 11 embryos
[9] = 120 hpf, 100 µmol/L, replicate 1, 25 embryos
[10] = 120 hpf, 115.76 µmol/L, replicate 2, 9 embryos
[11] = 120 hpf, 173.64 µmol/L, replicate 2, 9 embryos
[12] = 120 hpf, 200 µmol/L, replicate 1, 25 embryos
[13] = 120 hpf, 260.47 µmol/L, replicate 2, 10 embryos
[14] = 120 hpf, 390.70 µmol/L, replicate 2, 10 embryos
[15] = 120 hpf, 400 µmol/L, replicate 1, 25 embryos
[16] = sheet DCA 96 hpf (head prints 72 hpf), 77.18 µmol/L, replicate 2, 10 embryos
[17] = sheet DCA 96 hpf (head prints 72 hpf), 115.76 µmol/L, replicate 2, 9 embryos
[18] = sheet DCA 96 hpf (head prints 72 hpf), 173.64 µmol/L, replicate 2, 8 embryos
[19] = sheet DCA 96 hpf (head prints 72 hpf), 260.47 µmol/L, replicate 2, 10 embryos
[20] = sheet DCA 96 hpf (head prints 72 hpf), 390.70 µmol/L, replicate 2, 10 embryos

For `Nc1ccc(Cl)c(Cl)c1` [3,4-DCA, 3,4-dichloroaniline], the “No Surviving” value [1] was 11, the No hatched [1] was 9 and the “Sublethal effects Total Sublethal” value [1] was 9. For the same compound, the Sublethal effects tip [1] was 9, the “No Surviving” value [2] was 9 and the No hatched [2] was 7. For the same compound, the “Sublethal effects Total Sublethal” value [2] was 7, the Sublethal effects mch [2] was 4 and the Sublethal effects tip [2] was 7. The “No Surviving” value [3] was 8, the No hatched [3] was 7 and the “Sublethal effects Total Sublethal” value [3] was 7. For the same compound, the Sublethal effects mch [3] was 4, the Sublethal effects tip [3] was 7 and the “No Surviving” value [4] was 10. For the same compound, the No hatched [4] was 4, the “Sublethal effects EdY / EdP” value [4] was 1 and the “Sublethal effects Total Sublethal” value [4] was 4. For the same compound, the Sublethal effects mch [4] was 2, the Sublethal effects tip [4] was 4 and the “No Surviving” value [5] was 10. The No hatched [5] was 3, the “Sublethal effects EdY / EdP” value [5] was 10 and the “Sublethal effects Total Sublethal” value [5] was 10. The Sublethal effects mch [5] was 3, the Sublethal effects tip [5] was 3 and the Lethal effects k/f [6] was 3. The “No Surviving” value [6] was 22, the Lethal effects k/f [7] was 21 and the “No Surviving” value [7] was 4. For the same compound, the “No Surviving” value [8] was 11, the No hatched [8] was 8 and the “Sublethal effects EdY / EdP” value [8] was 8. The “Sublethal effects Total Sublethal” value [8] was 8, the Sublethal effects mch [8] was 4 and the Sublethal effects nobc [8] was 8. It also gave a Sublethal effects nomov [8] of 8, a Sublethal effects tip [8] of 8 and a Lethal effects k/f [9] of 25. The “No Surviving” value [9] was 0, the Lethal effects k/f [10] was 6 and the “No Surviving” value [10] was 3. The No hatched [10] was 8, the “Sublethal effects EdY / EdP” value [10] was 2 and the Sublethal effects mch [10] was 1. For the same compound, the Sublethal effects nobc [10] was 2, the Sublethal effects nomov [10] was 2 and the Sublethal effects tip [10] was 2. For the same compound, the Lethal effects k/f [11] was 3, the Lethal effects nohb [11] was 3 and the “No Surviving” value [11] was 3. The No hatched [11] was 9, the “Sublethal effects EdY / EdP” value [11] was 3 and the “Sublethal effects Ydef” value [11] was 1. It also gave a Sublethal effects mch [11] of 1, a Sublethal effects nobc [11] of 3 and a Sublethal effects nomov [11] of 3. The Sublethal effects tip [11] was 3, the Lethal effects k/f [12] was 25 and the “No Surviving” value [12] was 0. For the same compound, the Lethal effects k/f [13] was 5, the Lethal effects nohb [13] was 5 and the “No Surviving” value [13] was 0. For the same compound, the No hatched [13] was 4, the Lethal effects k/f [14] was 8 and the Lethal effects nohb [14] was 2. The “No Surviving” value [14] was 0, the No hatched [14] was 4 and the Lethal effects k/f [15] was 25. For the same compound, the “No Surviving” value [15] was 0, the LC10 (mortality after 48 h of exposure) was 306 and the LC10 (mortality after 72 h of exposure) was 14.1. The Slope (48 h of exposure) was 55.5, the Slope (72 h of exposure) was 1.53 and the “No Surviving” value [16] was 10. The No hatched [16] was 8, the “Sublethal effects EdY / EdP” value [16] was 6 and the “Sublethal effects Total Sublethal” value [16] was 8. The Sublethal effects mch [16] was 2, the Sublethal effects tip [16] was 8 and the “No Surviving” value [17] was 9. For the same compound, the No hatched [17] was 8, the “Sublethal effects Total Sublethal” value [17] was 8 and the Sublethal effects mch [17] was 5. For the same compound, the Sublethal effects nomov [17] was 5, the Sublethal effects tip [17] was 8 and the “No Surviving” value [18] was 8. For the same compound, the “Sublethal effects Total Sublethal” value [18] was 9, the “Sublethal effects Ydef” value [18] was 1 and the Sublethal effects mch [18] was 6. It also gave a Sublethal effects nobc [18] of 9, a Sublethal effects nomov [18] of 9 and a Sublethal effects tip [18] of 9. For the same compound, the “No Surviving” value [19] was 10, the No hatched [19] was 4 and the “Sublethal effects EdY / EdP” value [19] was 4. The “Sublethal effects Total Sublethal” value [19] was 4, the Sublethal effects mch [19] was 2 and the Sublethal effects nobc [19] was 4. The Sublethal effects nomov [19] was 4, the Sublethal effects tip [19] was 4 and the Lethal effects k/f [20] was 1. The Lethal effects nohb [20] was 9, the “No Surviving” value [20] was 0 and the No hatched [20] was 4.
